# From patent US20080057136A1, “Disinfecting Composition and Methods of Making and Using Same” (priority 2003, published 2008)
# Read-outs that look alike come from different tables or passages of the source.
# Columns and labels:
# dermatophyte infections = dermatophyte infections in animals; cited from earlier work
# T. rubrum ATCC 28188 [1] = test: NCCLS broth microdilution MIC and MFC (Example 10); type: cell-based, Trichophyton rubrum; settings: for MFC, %: 99.9% inhibition of growth
# Procedure: (§4) Strains of E. coli (ATCC 11229), D. aeruginosa (ATCC 15442), S. aureus (ATCC 25923), S. epidermidis (ATCC 12228), S. pyogenes (ATCC 19615), C. albicans (ATCC 10231), and T. rubrum (ATCC 28188) were used as “challenge microorganisms” in this study. Strains were removed from frozen stock and subcultured twice on blood agar to ensure that the strains had optimal growth and metabolic status before testing.
# (§5) Amphotericin B, fluconazole, and Hibiclens were added as comparative agents in the fungal panels.
# (§6) For testing purposes, AMC, AMC components, and Hibiclens were diluted to 50% of the working solution to cover the proposed AMC use dilution of 20%.
# (§7) Microtiter panels were created on the day of MIC testing. A 50 μl aliquot of Mueller-Hinton broth (for bacterial strains) or RPMI 1640 (for fungal strains) was delivered to each well, except those in column one of the microtiter panel. The working solution of AMC and each of its components, and comparative agents were delivered to the designated wells in column one. AMC, components, and comparators were serially diluted across the panel. A 50 μl aliquot of bacterial or fungal suspension was then added to each well on the microtiter panel, using a new pipette tip for each aliquot. Panels were incubated at 35° C. for 16-20 h for the E. coli, P. aeruginosa, and S. aureus strains, 20-24 h for the S. pyogenes strain, and 48 h for the C. albicans strain. T. rubrum panels were incubated for 3 to 4 days before MICs were read. […] Fungal MICs (%) were read using an 80% reduction in the growth endpoint relative to the turbidity of the growth control for AMC, its components, and fluconazole. For amphotericin B, the endpoint was read as the complete inhibition of growth.
# (§8) MFCs were determined in a similar manner.
# (§9) The endpoint for amphotericin B was read as complete inhibition of growth. The MIC % is expressed as g/100 ml or ml/100 ml. […] The MFC % is expressed as g/100 ml or ml/100 ml.
# [2] = tested on: S. epidermidis ATCC 12228; test: NCCLS broth microdilution MIC and MBC (Example 10); type: cell-based, Staphylococcus epidermidis; settings: for bactericidal activity: MBC within one doubling dilution of the MIC
# Procedure: as §4
# (§10) Hibiclens (industry comparator) and ciprofloxacin were added to the bacterial panel. Amphotericin B, fluconazole, and Hibiclens were added as comparative agents in the fungal panels.
# as §6
# (§11) Microtiter panels were created on the day of MIC testing. A 50 μl aliquot of Mueller-Hinton broth (for bacterial strains) or RPMI 1640 (for fungal strains) was delivered to each well, except those in column one of the microtiter panel. The working solution of AMC and each of its components, and comparative agents were delivered to the designated wells in column one. AMC, components, and comparators were serially diluted across the panel. A 50 μl aliquot of bacterial or fungal suspension was then added to each well on the microtiter panel, using a new pipette tip for each aliquot. Panels were incubated at 35° C. for 16-20 h for the E. coli, P. aeruginosa, and S. aureus strains, 20-24 h for the S. pyogenes strain, and 48 h for the C. albicans strain.
# (§12) The 10 μl samples were plated on to blood agar and incubated at 35° C. for 24 h (E. coli and P. aeruginosa) or 48 h (S. aureus, S. epidermidis, and S. pyogenes). After incubation, colony counts for each panel well plated were recorded.
# (§13) The MIC % is expressed as g/100 ml or ml/100 ml. […] The MBC % is expressed as g/100 ml or ml/100 ml.
# T. rubrum ATCC 28188 [3] = test: NCCLS broth microdilution MIC and MFC (Example 11); type: cell-based, Trichophyton rubrum
# Procedure: (§14) Strains of C. albicans (ATCC 10231) and T. rubrum (ATCC 28188) were tested in this study. Strains were removed from frozen stock and subcultured twice on blood agar to ensure that the strains had optimal growth and metabolic status before testing. Strains were tested by NCCLS broth microdilution (M27-A2, 2002) and challenged with AMC solution and its individual components […] ), and isopropanol. Amphotericin B, fluconazole, terbinafine, and Hibiclens were added as comparator compounds. […] Microtiter panels were created on the day of MIC testing. A 50 μl aliquot of RPMI 1640 was delivered to each well except those in column one of the microtiter panel. The working solution of AMC and each of its components, and comparative agents were delivered to the designated wells in column one; AMC, components, and comparators were serially diluted across the panel. A 50 μl aliquot of fungal suspension was then added to each well on the microtiter panel, using a new pipette tip for each aliquot. […] For amphotericin B, the endpoint was read as the complete inhibition of growth. […] MFCs were performed to determine the concentration at which ≧99% of the starting fungal inoculum was killed. […] After incubation, colony counts for each panel well plated were recorded. […] The endpoint for amphotericin B was read as complete inhibition of growth.
# [4] = component at 100%; cited from earlier work
# [5] = component at 100%; cited from earlier work; remark: listed apart in the source
# [6] = tested on: Staphylococcus aureus (ATCC 25923); test: Time-Kill test (Example 9); type: cell-based; settings: Study 509-101; at 30 seconds
# Procedure: A panel of “challenge microorganisms,” including select bacteria, yeast, and fungi was used to assess the disinfecting properties of test compounds, e.g., AMC (DPT Laboratories). Specifically, the disinfectant property of test compounds were tested against Staphylococcus aureus (ATCC 25923); Staphylococcus epidermidis (ATCC 12228); Bacillus subtilis (ATCC 19659); Escherichia coli (ATCC 11229); and Pseudomonas aeruginosa (ATCC 15442) bacteria, as well as the yeast Candida albicans (ATCC 10231), and the fungus Trichophyton rubrum (ATCC 28188). The test procedure incorporated the recommendations described in the “Manual of Clinical Microbiology,” 5th ed., edited by A. B. Balows et al., ASM, Washington, as directed by the Federal Register, June 1994. […]
# A single lot of test material was prepared at various concentrations, along with multiple compounds prepared in various concentrations and combinations. […] The plates were then incubated, and the average colony forming units (CFU) recovered per milliliter were determined for each contact time. […]
# Bacteria and C. albicans from stock cultures were transferred into trypticase soya broth (TSB) and incubated for 18-24 hours at 37° C.±2° C. […] The microbe concentration was measured using a spectrophotometric technique well-known in the art. […]
# [7] = Acute dermal toxicity, rabbit; settings: for LD50: rabbit, in vivo, topical or ocular
# P. aeruginosa ATCC 15442 = test: NCCLS broth microdilution MIC and MBC (Example 10); type: cell-based, Pseudomonas aeruginosa
# Procedure: as §4, §10, §6, §11, §12, §13
# [8] = Acute inhalation toxicity, rat; settings: for LC50: rat, in vivo, inhaled
# Acute oral toxicity, rat = settings: for LD50: rat, in vivo, po
# S. pyogenes ATCC 19615 = test: NCCLS broth microdilution MIC and MBC (Example 10); type: cell-based, Streptococcus pyogenes
# Procedure: as §4, §10, §6, §11, §12, §13
# [9] = tested on: Trichophyton rubrum (ATCC 28188); test: Time-Kill test (Example 9); type: cell-based; settings: for 30-Second Log Reduction from Initial T. rubrum CFU Values: Table 25, first value column
# Procedure: A panel of “challenge microorganisms,” including select bacteria, yeast, and fungi was used to assess the disinfecting properties of test compounds, e.g., AMC (DPT Laboratories). […] The procedure was based on the ASTM procedure entitled, “Standard Test Method for the Assessment of Microbial Activity of Test Materials Using Time-Kill Procedure.”
# A single lot of test material was prepared at various concentrations, along with multiple compounds prepared in various concentrations and combinations. These test materials were tested in duplicate against various bacteria, yeast and fungi. To minimize potential buffer interference and to minimize reduction of antimicrobial activity, the volume of the inoculum added to the test material was maintained at, or below, 1% of the total volume of the test. Samples were removed at various contact times. Serial dilutions were performed, and duplicate aliquots were plated. The plates were then incubated, and the average colony forming units (CFU) recovered per milliliter were determined for each contact time. The contact times for the test compounds with S. aureus, E. coli, P. aeruginosa, and C. albicans were 30 sec, 1 min, and 5 min. The contact times for the test compounds with B. subtilis were 1 and 10 min, 1 h, 2 h, 3 h, and 24 h. The contact times for the test compounds with T. rubrum were 30 sec, 1 min and 10 min. The contact temperature was ambient room temperature (20-21° C.).
# The fungus, T. rubrum, was inoculated onto Emmon's agar (EA) and incubated at 25-30° C. for 10-15 days. The mycelial mats from mature cultures were removed from the surface of at least 5 plates and macerated with sterile saline (SS) in a sterile glass tissue grinder. The suspension was filtered through sterile glass wool to remove the hyphae.
# The density of the conidial suspension was determined by serially diluting the prepared culture in BPDW. Aliquots from selected dilutions were plated on duplicate EA plates. The plates were incubated for 3-5 days at 25-30° C. and then each plate was examined for enumeration.
# The suspension was stored at 2-10° C. for 4 weeks before use. On the day of testing, the suspension was adjusted to yield approximately 5.0×10^8 CFU by dilution with BPDW.
# Compliant with the ASTM procedure cited above, the challenge microorganism was added to the test material by dispensing 99 ml of the test material into two sterile flasks, each containing a stir bar. The reaction flasks were allowed to equilibrate to the test temperature for at least 10 minutes. The flasks were placed in water baths on stir plates and maintained at the test temperature with stirring. A 1 ml aliquot of the prepared inoculum of the challenge microorganism was added to each flask to begin the contact period. At each contact time, 1 ml aliquot samples were removed and added to tubes containing 9 ml PBDW+. Serial 10-fold dilutions of each sample were then prepared in PBDW dilution blanks. Duplicate aliquots from selected dilutions were plated using the appropriate agar.
# Upon completion of all contact periods, all plates were inverted and incubated for the appropriate time and temperature as follows: bacteria and yeast were incubated over 2 nights at 37° C.±2° C., and the fungus was incubated for at least 5 nights at 25-30° C. Following incubation, all plates were removed, the colonies were counted and the CFU recovered per ml at each contact time were calculated.
# S. aureus ATCC 25923 = test: NCCLS broth microdilution MIC and MBC (Example 10); type: cell-based, Staphylococcus aureus; settings: for bactericidal activity: MBC within one doubling dilution of the MIC
# Procedure: as §4, §10, §6, §11, §12, §13
# S. epidermidis = test: MIC and MBC determination by doubling dilutions (Study 509-102); type: cell-based; settings: Staphylococcus epidermidis, Inoculum Counts: 9.0 × 10^5
# Text: (§1) Table 2 below indicates the stock dilutions for each test agent, and a breakdown of the resulting concentrations for each of the doubling dilutions performed is summarized in Table 3.
# (§2) From the stock dilutions, an initial 1:10 dilution was made (representing tube 1), followed by doubling dilutions (tubes 2-12), as detailed in Table 3.
# S. pyogenes = test: as above; type: cell-based; settings: Streptococcus pyogenes, Inoculum Counts: 9.8 × 10^5
# Text: as §1, §2
# Escherichia coli = test: as above; type: cell-based; settings: Inoculum Counts: 9.4 × 10^5
# Text: as §1, §2
# C. albicans = test: as above; type: cell-based; settings: Candida albicans, Inoculum Counts: 6.6 × 10^5
# Text: as §1, §2
# Pseudomonas aeruginosa = test: as above; type: cell-based; settings: Inoculum Counts: 8.8 × 10^5
# Text: as §1, §2
# Staphylococcus aureus = test: as above; type: cell-based; settings: Inoculum Counts: 7.5 × 10^6
# Text: as §1, §2
# E. coli ATCC 11229 = test: NCCLS broth microdilution MIC and MBC (Example 10); type: cell-based, Escherichia coli
# Procedure: as §4, §10, §6, §11, §12, §13
# T. rubrum = test: MIC and MBC determination by doubling dilutions (Study 509-102); type: cell-based, Trichophyton rubrum; settings: Trichophyton rubrum; Study 509-102; Inoculum Counts: 3.6 × 10^8
# Text: as §1, §2
# [10] = in vivo; cited from earlier work
# Hepatitis B virus = settings: virus in dried human plasma exposed 10 min at 20 deg C. to 70% isopropanol; 9 months observation; cited from earlier work
# C. albicans ATCC 10231 [11] = test: NCCLS broth microdilution MIC and MFC (Example 11); type: cell-based, Candida albicans
# Procedure: as §14
# C. albicans ATCC 10231 [12] = test: NCCLS broth microdilution MIC and MFC (Example 10); type: cell-based, Candida albicans
# Procedure: as §4, §5, §6, §7, §8, §9
# [13] = component at 100%; cited from earlier work; remark: listed apart in the source
# [14] = component at 100%; cited from earlier work; remark: listed apart in the source
# [15] = tested on: Bacillus cereus (strain 96); test: Time-kill test, initial studies (death time, sporicidal activity); type: cell-based; settings: Conc. 5.0 %
# S. aureus (strain 906) = test: Time-kill test, initial studies (death time); type: cell-based, Staphylococcus aureus
# Text: (§3) Time-kill tests were used to measure the disinfecting property of test compounds, e.g., microbiocidal or sporicidal compositions, using select bacterial challenge microorganisms such as the vegetative forms of, e.g., E. coli (strain 1257) S. aureus (strain 906), and Bacillus cereus (strain 96).
# E. coli (strain 1257) = test: Time-kill test, initial studies (death time); type: cell-based, Escherichia coli
# Text: as §3
# [16] = Example 10, % as g/100 ml or ml/100 ml
# [17] = 80% reduction in growth endpoint
# [18] = MFC within 1 doubling dilution of the MIC
# [19] = Estimated for AMC contained concentrations
compound,measurement,setting,value
CC(C)N1CCN(c2ccc(N3CCN(c4ccc(OC[C@H]5OC[C@](Cn6cncn6)(c6ccc(F)cc6F)O5)cc4)CC3)cc2)C1=O [Azoline],activity relative to itraconazole,dermatophyte infections,5 times
"CCCCCCCCCCCCCCCC[n+]1ccccc1 [CPC, Cetyl Pyridinium Chloride]","MFC, %",T. rubrum ATCC 28188 [1]; Example 10,≤ 0.0007%
same,MFC,"T. rubrum ATCC 28188 [1]; Trichophyton rubrum, ATCC28188",≤ 7 µg/mL
same,MCB (μg/ml),[2],(<=7) μg/ml
same,"MCB, %",[2]; % as g/100 ml or ml/100 ml,<=0.0007%
same,"MFC, %",T. rubrum ATCC 28188 [3]; Example 11,≤ 0.0007%
same,MFC,"T. rubrum ATCC 28188 [3]; Trichophyton rubrum, ATCC28188",≤ 7 µg/mL
same,Rabbit Dermal LD50,[4],">2,000 mg/Kg"
same,Rat Inhalation LC50,[5],0.090 µg/mL
same,reduction of S. aureus count,[6],2 log10
same,LD50,[7],> 20000 mg/kg
same,"MBC, %",P. aeruginosa ATCC 15442; [16],0.04%
same,MBC,"P. aeruginosa ATCC 15442; Pseudomonas aeruginosa, ATCC15442",400 µg/mL
same,LC50,[8],9 µg/mL
same,LD50,"Acute oral toxicity, rat",20000 mg/kg
same,"MBC, %",S. pyogenes ATCC 19615; [16],<=0.0007%
same,MBC,"S. pyogenes ATCC 19615; Streptococcus pyogenes, ATCC19615",≤ 7 µg/mL
same,30-Second Log Reduction from Initial T. rubrum CFU Values,[9],3.4 Logs
same,"MBC, %",S. aureus ATCC 25923; [16],<=0.0007%
same,MBC,"S. aureus ATCC 25923; Staphylococcus aureus, ATCC25923",≤ 7 µg/mL
O=C(O)c1cn(C2CC2)c2cc(N3CCNCC3)c(F)cc2c1=O [Ciprofloxacin],MCB,[2],0.25 µg/mL
same,bactericidal activity,[2],bactericidal activity
same,MIC,"[2]; Staphylococcus epidermidis, ATCC12228",0.25 µg/mL
same,MBC,S. epidermidis,> 0.1 µg/mL
same,MIC,S. epidermidis,> 0.1 µg/mL
same,MBC,S. pyogenes,> 0.1 µg/mL
same,MIC,S. pyogenes,> 0.1 µg/mL
same,MBC,Escherichia coli,> 0.1 µg/mL
same,MIC,Escherichia coli,> 0.1 µg/mL
same,MBC,C. albicans,> 0.1 µg/mL
same,MIC,C. albicans,> 0.1 µg/mL
same,MBC,Pseudomonas aeruginosa,> 0.1 µg/mL
same,MIC,Pseudomonas aeruginosa,> 0.1 µg/mL
same,MBC,Staphylococcus aureus,> 0.1 µg/mL
same,MIC,Staphylococcus aureus,> 0.1 µg/mL
same,MIC,"P. aeruginosa ATCC 15442; Pseudomonas aeruginosa, ATCC15442, Example 10",0.12 µg/mL
same,MBC,"P. aeruginosa ATCC 15442; Pseudomonas aeruginosa, ATCC15442, Example 10, read-out: MBC",0.5 µg/mL
same,MIC,"S. pyogenes ATCC 19615; Streptococcus pyogenes, ATCC19615, Example 10",0.5 µg/mL
same,MBC,"S. pyogenes ATCC 19615; Streptococcus pyogenes, ATCC19615, Example 10, read-out: MBC",0.5 µg/mL
same,MIC,"E. coli ATCC 11229; Escherichia coli, ATCC11229",≤ 0.03 µg/mL
same,MBC,T. rubrum,> 0.1 µg/mL
same,MIC,T. rubrum,> 0.1 µg/mL
same,bactericidal activity,S. aureus ATCC 25923; Example 10,bactericidal activity
same,MIC,"S. aureus ATCC 25923; Staphylococcus aureus, ATCC25923, Example 10",0.5 µg/mL
same,MBC,"S. aureus ATCC 25923; Staphylococcus aureus, ATCC25923, Example 10, read-out: MBC",0.5 µg/mL
C=C1/C(=C/C=C2\CCC[C@]3(C)[C@@H]([C@@H](C)CCC(=O)N4CCCCC4)CC[C@@H]23)C[C@@H](O)C[C@@H]1O [Ecalcidene],"dose with immunological effects, times lower than doses causing toxicity associated with hypercalcemia",[10],10-100 times
CC(C)O [Isopropanol],infection after intravenous inoculation of treated viral material,Hepatitis B virus,did not show signs of infection
same,"MIC, %","T. rubrum ATCC 28188 [1]; Example 10, 80% reduction in growth endpoint",0.2%
same,"MFC, %",T. rubrum ATCC 28188 [1]; Example 10,0.4%
same,fungicidal activity,"T. rubrum ATCC 28188 [1]; Example 10, MFC within 1 doubling dilution of the MIC",Fungicidal activity was observed
same,"MCB, %",[2]; % as g/100 ml or ml/100 ml,24.5%
same,"MIC, %",[2]; % as g/100 ml or ml/100 ml,12.3%
same,bactericidal activity,[2],bactericidal activity
same,"MFC, %",C. albicans ATCC 10231 [11],1.5%
same,"MIC, %",C. albicans ATCC 10231 [11]; [17],0.8%
same,fungicidal activity,C. albicans ATCC 10231 [11]; [18],Fungicidal activity
same,"MIC, %",C. albicans ATCC 10231 [12]; [17],1.5%
same,"MFC, %",C. albicans ATCC 10231 [12]; 99.9% inhibition of growth,1.5%
same,fungicidal activity,C. albicans ATCC 10231 [12]; [18],Fungal activity
same,Rat Oral LD50,[13],">5,000 mg/Kg"
same,"MFC, %",T. rubrum ATCC 28188 [3]; Example 11,3.1%
same,"MIC, %","T. rubrum ATCC 28188 [3]; Example 11, 80% reduction in growth endpoint",0.2%
same,fungicidal activity,"T. rubrum ATCC 28188 [3]; Example 11, MFC within 1 doubling dilution of the MIC",did not demonstrate fungicidal activity
same,Rabbit Dermal LD50,[4],"12,800 mg/Kg"
same,Rat Inhalation LC50,[5],72.6 µg/mL
same,LD50,[7],25600 mg/kg
same,"MBC, %",P. aeruginosa ATCC 15442; [16],12.3%
same,"MIC, %",P. aeruginosa ATCC 15442; [16],3.1%
same,LC50,[8],145 µg/mL
same,LD50,"Acute oral toxicity, rat",> 5000 mg/kg
same,"MBC, %",S. pyogenes ATCC 19615; [16],12.3%
same,"MIC, %",S. pyogenes ATCC 19615; [16],12.3%
same,"MIC, %",E. coli ATCC 11229; % as g/100 ml or ml/100 ml,6.1%
same,Relative Kill Potency,[9],0.64
same,reduction of T. rubrum count,"[9]; Study 509-101, in 30 sec",not effective
same,30-Second Log Reduction from Initial T. rubrum CFU Values,[9],0.8 Logs
same,"MBC, %",S. aureus ATCC 25923; [16],24.6%
same,"MIC, %",S. aureus ATCC 25923; [16],12.3%
same,bactericidal activity,S. aureus ATCC 25923; Example 10,bactericidal activity
"[O-2].[Zn+2] [Zn oxide (100%), Zn oxide]",Rabbit Dermal LD50,[4],">2,000 mg/Kg"
same,Rat Oral LD50 (*Mouse data),[14],"7,950 mg/Kg"
same,Rat Inhalation LC50,[5],>0.005 µg/mL
same,Rabbit Dermal LD50,[7]; [19],">>100,000 mg/Kg"
same,Rat Inhalation LC50,[8]; [19],>4.2 µg/mL
same,Rat Oral LD50,"Acute oral toxicity, rat; [19]",">>100,000 mg/Kg"
Monoglycinatecopper chloride complex,Death time of test-microorganisms (min) B. cereus,[15],>360 min
same,Death time of test-microorganisms (min) S. aureus,S. aureus (strain 906); Conc. 0.1 %,>30 min
same,Death time of test-microorganisms (min) S. aureus,S. aureus (strain 906); Conc. 0.2 %,>30 min
same,Death time of test-microorganisms (min) S. aureus,S. aureus (strain 906); Conc. 0.5 %,>30 min
same,Death time of test-microorganisms (min) S. aureus,S. aureus (strain 906); Conc. 5.0 %,>30 min
same,Death time of test-microorganisms (min) E. coli,E. coli (strain 1257); Conc. 0.1 %,>30 min
same,Death time of test-microorganisms (min) E. coli,E. coli (strain 1257); Conc. 0.2 %,30 min
same,Death time of test-microorganisms (min) E. coli,E. coli (strain 1257); Conc. 0.5 %,15 min
